Test results reported in ChEMBL document CHEMBL2417365, “Design, synthesis, and in vitro hMAO-B inhibitory evaluation of some 1-methyl-3,5-diphenyl-4,5-dihydro-1H-pyrazoles” (Bioorg Med Chem Lett, 2013).

What was measured:
[1] = target: T1, Amine oxidase [flavin-containing] B (Homo sapiens, UniProt P27338); test: biochemical; assay type: cell-based, BTI-TN-5B1-4
T1 sequence (P27338 whole entry): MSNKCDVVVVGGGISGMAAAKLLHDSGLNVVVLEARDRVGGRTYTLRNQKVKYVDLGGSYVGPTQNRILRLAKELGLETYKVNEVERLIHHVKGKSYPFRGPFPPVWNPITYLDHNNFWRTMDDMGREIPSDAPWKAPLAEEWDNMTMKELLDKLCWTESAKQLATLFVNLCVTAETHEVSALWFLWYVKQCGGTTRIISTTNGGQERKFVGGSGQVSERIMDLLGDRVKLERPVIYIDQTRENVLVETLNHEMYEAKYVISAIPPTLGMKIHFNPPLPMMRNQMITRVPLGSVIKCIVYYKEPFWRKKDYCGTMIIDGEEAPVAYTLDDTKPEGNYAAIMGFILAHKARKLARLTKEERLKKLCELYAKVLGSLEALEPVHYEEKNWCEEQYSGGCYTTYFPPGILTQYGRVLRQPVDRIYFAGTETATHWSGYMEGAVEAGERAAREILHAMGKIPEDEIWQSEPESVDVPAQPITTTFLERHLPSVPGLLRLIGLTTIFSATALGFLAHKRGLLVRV
Description: Inhibition of human recombinant microsomal MAO-B expressed in baculovirus-infected insect BTI-TN-5B1-4 cells assessed as p-tyramine conversion to H2O2 by fluorescence assay

[2] = target: T2, Amine oxidase [flavin-containing] A (Homo sapiens, UniProt P21397); test: Inhibition of human recombinant microsomal MAO-A expressed in baculovirus-infected insect BTI-TN-5B1-4 cells assessed as p-tyramine conversion to H2O2 by fluorescence assay
T2 sequence (P21397 whole entry): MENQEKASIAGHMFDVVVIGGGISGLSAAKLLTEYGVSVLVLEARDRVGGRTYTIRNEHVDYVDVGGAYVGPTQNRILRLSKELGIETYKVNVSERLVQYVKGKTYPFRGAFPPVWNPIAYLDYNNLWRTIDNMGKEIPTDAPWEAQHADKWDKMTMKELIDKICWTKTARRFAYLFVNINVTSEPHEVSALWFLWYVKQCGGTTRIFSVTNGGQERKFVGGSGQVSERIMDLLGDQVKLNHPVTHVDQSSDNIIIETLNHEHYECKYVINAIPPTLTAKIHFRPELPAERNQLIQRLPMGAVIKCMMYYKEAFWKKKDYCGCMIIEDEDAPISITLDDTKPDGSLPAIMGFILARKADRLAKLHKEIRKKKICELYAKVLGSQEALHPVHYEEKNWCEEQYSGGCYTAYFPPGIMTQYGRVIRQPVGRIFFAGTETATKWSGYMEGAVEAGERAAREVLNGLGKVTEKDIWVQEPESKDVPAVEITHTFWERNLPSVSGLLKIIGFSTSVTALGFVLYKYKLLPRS

Homo sapiens = organism: Homo sapiens; test: Selectivity index, ratio of IC50 for human MAO-A to IC50 for human MAO-B
[3] = target: T1, Amine oxidase [flavin-containing] B; test: Inhibition of human recombinant microsomal MAO-B expressed in baculovirus-infected insect BTI-TN-5B1-4 cells at 100 uM assessed as p-tyramine conversion to H2O2 by fluorescence assay; conditions: for inhibition (INH): human, bti-tn-5b1-4, 100 µM; for inhibition at 100 µM: BTI-TN-5B1-4, human
[4] = target: T2, Amine oxidase [flavin-containing] A; test: Inhibition of human recombinant microsomal MAO-A expressed in baculovirus-infected insect BTI-TN-5B1-4 cells at 100 uM assessed as p-tyramine conversion to H2O2 by fluorescence assay; conditions: for inhibition (INH): human, bti-tn-5b1-4, 100 µM; for inhibition at 100 µM: BTI-TN-5B1-4, human
[5] = target: T2, Amine oxidase [flavin-containing] A; test: Ratio of clorgyline IC50 to compound IC50 for human MAO-A
[6] = target: Amine oxidase [flavin-containing] B (Homo sapiens) (UniProt P27338); test: Ratio of selegiline IC50 to compound IC50 for human MAO-B
[7] = target: T1, Amine oxidase [flavin-containing] B; test: Ratio of selegiline IC50 to compound IC50 for human MAO-B
[8] = target: T1, Amine oxidase [flavin-containing] B; test: Ratio of clorgyline IC50 to compound IC50 for human MAO-B
[9] = target: Amine oxidase [flavin-containing] B (Homo sapiens) (UniProt P27338); test: Ratio of moclobemide IC50 to compound IC50 for human MAO-B
[10] = target: Amine oxidase [flavin-containing] B (Homo sapiens) (UniProt P27338); test: Ratio of iproniazid IC50 to compound IC50 for human MAO-B

Structure (SMILES) | IC50 [1] [µM] | IC50 [2] [µM] | Ratio IC50 (Homo sapiens) | other results
CN1N=C(c2ccc(O)cc2O)CC1c1cccc(F)c1 (stereo unspecified) |  |  |  | inhibition (INH) [3]: Not Active; inhibition (INH) [4]: Not Active
O=C(NCCN1CCOCC1)c1ccc(Cl)cc1 [MOCLOBEMIDE] |  |  |  | inhibition (INH) [3]: Not Active
CN1N=C(c2ccccc2)CC1c1ccccc1Cl (stereo unspecified) | 3.65 |  | > 27 | inhibition (INH) [4]: Not Active
CN1N=C(c2ccc(O)cc2)CC1c1cccc(F)c1 (stereo unspecified) | 3.17 |  | > 31 | inhibition at 100 µM [4]: 40%
CN1N=C(c2ccc(O)cc2)CC1c1ccccc1F (stereo unspecified) | 3.04 |  | > 33 | inhibition at 100 µM [4]: 40%
Cc1ccccc1C1CC(c2ccc(O)cc2)=NN1C (stereo unspecified) | 20.1 | 21.9 | 1.1 | 
CN1N=C(c2ccc(O)cc2O)CC1c1ccccc1F (stereo unspecified) | 3.87 |  | > 26 | inhibition at 100 µM [4]: 40%
CN1N=C(c2ccc(O)cc2)CC1c1ccccc1Cl (stereo unspecified) | 10.4 | 11.8 | 1.1 | 
CN1N=C(c2ccc(O)cc2)CC1c1ccc(F)cc1 (stereo unspecified) | 3.65 |  | > 27 | inhibition at 100 µM [4]: 40%
Cc1cccc(C2CC(c3ccc(O)cc3)=NN2C)c1 (stereo unspecified) | 5.78 | 16.3 | 2.8 | 
Cc1cccc(C2CC(c3ccc(O)cc3O)=NN2C)c1 (stereo unspecified) |  |  |  | inhibition at 100 µM [3]: 40%; inhibition at 100 µM [4]: 40%
CN1N=C(c2ccccc2)CC1c1ccc(Cl)cc1 (stereo unspecified) | 3.95 |  | > 25 | inhibition (INH) [4]: Not Active
CN1N=C(c2ccc(O)cc2O)CC1c1ccc(F)cc1 (stereo unspecified) |  | 0.81 |  | 
CN1N=C(c2ccc(O)cc2O)CC1c1ccccc1 (stereo unspecified) |  |  |  | inhibition at 100 µM [3]: 40%; inhibition at 100 µM [4]: 40%
CN1N=C(c2ccc(O)cc2)CC1c1ccccc1 (stereo unspecified) | 26.8 |  | > 3.7 | inhibition at 100 µM [4]: 40%
Cc1ccc(C2CC(c3ccc(O)cc3O)=NN2C)cc1 (stereo unspecified) |  |  |  | inhibition at 100 µM [3]: 40%; inhibition at 100 µM [4]: 40%

More lines, main results first:

IC50 [1] [µM] | IC50 [2] [µM] | Ratio IC50 (Homo sapiens) | Structure (SMILES) | other results
0.14 | 3 | 21 | CN1N=C(c2ccccc2)CC1c1ccc(F)cc1 (stereo unspecified) | 
0.34 | 1.39 | 4.1 | CN1N=C(c2ccc(O)cc2O)CC1c1ccc(Cl)cc1 (stereo unspecified) | 
0.12 | 1.68 | 14 | CN1N=C(c2ccccc2)CC1c1ccccc1 (stereo unspecified) | 
2.07 | 18.7 | 9 | CN1N=C(c2ccc(O)cc2)CC1c1cccc(Cl)c1 (stereo unspecified) | 
0.28 | 2.84 | 10 | CN1N=C(c2ccccc2)CC1c1ccccc1F (stereo unspecified) | 
2.64 | 12.7 | 4.8 | CN1N=C(c2ccc(O)cc2)CC1c1ccc(Cl)cc1 (stereo unspecified) | 
0.3 | 1.1 | 3.7 | CN1N=C(c2ccc(O)cc2O)CC1c1ccccc1Cl (stereo unspecified) | 
0.06 | 1.82 | 30 | CN1N=C(c2ccccc2)CC1c1cccc(F)c1 (stereo unspecified) | 
1.91 | 9.13 | 4.8 | Cc1ccc(C2CC(c3ccc(O)cc3)=NN2C)cc1 (stereo unspecified) | 
0.0096 | 1.39 | 145 | Cc1ccc(C2CC(c3ccccc3)=NN2C)cc1 (stereo unspecified) | Ratio IC50 [5]: <= 2; Ratio IC50 [6]: <= 2; Ratio IC50 [7]: ≥ 2; Ratio IC50 [8]: ≥ 2; Ratio IC50 [9]: <= 2; Ratio IC50 [10]: <= 2
0.18 | 0.42 | 2.3 | CN1N=C(c2ccc(O)cc2O)CC1c1cccc(Cl)c1 (stereo unspecified) | 
0.84 | 51 | 61 | CN1N=C(c2ccccc2)CC1c1cccc(Cl)c1 (stereo unspecified) | 
0.11 | 3.26 | 30 | Cc1ccccc1C1CC(c2ccccc2)=NN1C (stereo unspecified) | 
2.04 | 3.98 | 1.9 | Cc1ccccc1C1CC(c2ccc(O)cc2O)=NN1C (stereo unspecified) | 
0.11 |  | > 909 | Cc1cccc(C2CC(c3ccccc3)=NN2C)c1 (stereo unspecified) | inhibition at 100 µM [4]: 40%
